One molecule from US20220127298A1, “THERMOSPOROTHRIX HAZAKENSIS-DERIVED ANTIBACTERIALLY ACTIVE SUBSTANCE” (KENNAN EISEI KOGYO CO., LTD., priority 2019, published 2022) can be followed below.

Holding throughout (assay type): cell-based
The test system of assay [1] is Geobacillus stearothermophilus ATCC 7953. Kind of assay: Antibacterial spectrum test, paper disk assay. The settings on record: 50 μL of 1000 γ solution in methanol, LB agar, 60° C., 18 hours. The procedure:
(§1) The antibacterial activity of HK-1 was assayed using a paper disk against the following bacterial bodies. A piece of ice was taken out of a glycerol stock of G. stearothermophilus stored at -80° C. and […] inoculated on the LB agar culture medium (see Example 1) with a toothpick. This was incubated at 60° C. for 18 hours. After the incubation, 1⁄2 platinum loop of the culture was harvested and suspended in 500 μL of sterile water. The bacterial suspension was diluted 10-fold with sterile water. Onto a LB agar culture medium, 100 μL of the diluted suspension was dropped and spread until it was dried up. A piece of paper disk was placed on a filter paper, onto which 50 μL of a HK-1 solution adjusted to 1000 γ with methanol was dropped and dried. Then the disk was placed on the agar culture medium coated with the bacterial body. After incubation at 60° C. for 18 hours, the diameter of the inhibition ring was measured.

The test system of assay [2] is Bacillus subtilis NBRC 3134^T. Kind of assay: Antibacterial spectrum test, paper disk assay. The settings on record: 50 μL of 1000 γ solution in methanol, LB agar, 37° C., 18 hours. The procedure: as §1, with “measured. Assays were performed in the same manner as in 1 above, except that the incubation temperature was changed to 37° C.” for “measured.”
Assay [3] has as its system Escherichia coli NBRC 102203^T. As to the kind of experiment: Antibacterial spectrum test, paper disk assay. The settings on record: 50 μL of 1000 γ solution in methanol, LB agar, 37° C., 18 hours. As to the method:
as §1, with “measured. Assays were performed in the same manner as in 1 above, except that the incubation temperature was changed to 37° C.” for “measured.”

Assay [4] deals with Streptomyces griseus NBRC 15744^T. As to the kind of experiment: Antibacterial spectrum test, paper disk assay. The settings on record: 50 μL of 1000 γ solution in methanol, YMPD medium, 28° C., 4 days. As to the method:
(§2) The antibacterial activity of HK-1 was assayed using a paper disk against the following bacterial bodies.
(§3) A piece of ice out of a glycerol stock of S. griseus stored at −80° C. was planarly inoculated on the YMPD agar culture medium with a toothpick. This was incubated at 28° C. for 5 days. After the incubation, a small amount of spore was scraped off with a swab, and planarly inoculated on the YMPD culture medium. A piece of paper disk was placed on a filter paper, onto which 50 μL of a HK-1 solution adjusted to 1000 γ with methanol was dropped and dried. Then the disk was placed on the agar culture medium coated with the bacterial body. After incubation at 28° C. for 4 days, the diameter of the inhibition ring was measured.

Assay [5] has as its system Thermosporothrix hazakensis SK20-1^T NBRC 105916^T. As to the kind of experiment: Antibacterial spectrum test, paper disk assay. The settings on record: 50 μL of 1000 γ solution in methanol, YS medium, 50° C., 2 days. The procedure: as §2, §3
(§4) Assays were performed in the same manner as in 3 above, except that the incubation conditions were changed to YS culture medium (see Example 1), 50° C., and 2-day period.

Assay [6] deals with Thermosporothrix narukonensis F4^T. As to the kind of experiment: Antibacterial spectrum test, paper disk assay. The settings on record: 50 μL of 1000 γ solution in methanol, YS medium, 50° C., 2 days. As to the method: as §2, §3, §4
Assay [7] relates to Streptomyces sp. AGRN-8. As to the kind of experiment: Antibacterial spectrum test, paper disk assay. The settings on record: 50 μL of 1000 γ solution in methanol, BM medium, 45° C., 2 days. As to the method:
as §2, §3
(§5) Assays were performed in the same manner as in 3 above, except that the incubation conditions were changed to BM culture medium, 45° C., and 2-day period.

Assay [8] deals with Streptomyces sp. AGRN-9. As to the kind of experiment: Antibacterial spectrum test, paper disk assay. The settings on record: 50 μL of 1000 γ solution in methanol, BM medium, 45° C., 2 days. The procedure: as §2, §3, §5
Assay [9] deals with Bacillus subtilis NBRC 3134^T. Kind of assay: Antibacterial activity test in changing pH, paper disk assay. The settings on record: 1000 γ in methanol, 50 μL on paper disk, 37° C., 18 hours. The procedure: Into a 50-mL Falcon tube, 20 mg of HK-1 was weighed out using an electric balance, and therein 20 mL of methanol (1000 γ) was added followed by gentle stirring. Each 3.3 mL was aliquoted to totally two 15-mL Falcon tubes. To one of them 20 μL of 1 N sodium hydroxide was added followed by gentle stirring. The pH was tested with a pH test paper. Ten (10) μL of each sample was subjected to HPLC. The HPLC analysis conditions are as follows. The stability of a compound is regarded as one of the important information for evaluating a substance. This is because, even if the external environment changes, insofar as the compound itself is stable, it can be applied in various situations, and the information leads to acquisition of biological knowledges. Therefore, the stability of the activity was examined by measuring antibacterial activities with respect to G. stearothermophilus, and B. subtilis using the solution prepared in the above “1. Antibacterial spectrum test”. (1) In a 200-mL Erlenmeyer flask, 100 mL of a NB culture medium was prepared and sterilized in an autoclave (121° C., 20 min). (2) After cooling to 50° C. or lower, 100 μL of the B. subtilis spore suspension was added. […] The culture medium was taken out from the incubator, and the diameter of the inhibition ring was measured with calipers (Kanon hardened stainless 150 mm).

In the case of `COc1cc(OOc2cc(OC)c3c(c2-c2c(O)c(Cl)c(C)c4c2C(O)c2c(Cl)c(O)cc(O)c2C4=O)C(OC2OC(C)C(O)C2O)c2c(Cl)c(OC)c(Cl)c(C)c2C3=O)c(-c2c(O)c(Cl)c(C)c3c2C(O)c2c(Cl)c(O)cc(O)c2C3=O)c2c1C(=O)c1c(C)c(Cl)c(OC)c(Cl)c1C2OC1OC(C)C(O)C1O` (stereo not shown) [HK-1], the inhibition ring diameter in [1] is reported as 34.0 mm; in [2], 32.0 mm; in [3] it was 14.0 mm; in assay [4], 38.0 mm; in assay [5], 10.0 mm; in assay [6] it was 10.0 mm. The inhibition ring diameter in assay [7] was 16.0 mm; in assay [8], 19.0 mm; in assay [9] (solution with pH adjusted to 9), 20.2 mm; in [9] (solution with pH not adjusted), 18.5 mm.
